In US5436254A, “Carbostyril derivatives” (Otsuka Pharmaceutical Company, Ltd., priority 1989, dated 1995):
Counter-ions that a name gives are not always drawn.

molecular target: V1 receptor (Rattus norvegicus, UniProt P30560); assay: biochemical; assay type: binding; conditions: not given
Sequence (P30560 whole entry): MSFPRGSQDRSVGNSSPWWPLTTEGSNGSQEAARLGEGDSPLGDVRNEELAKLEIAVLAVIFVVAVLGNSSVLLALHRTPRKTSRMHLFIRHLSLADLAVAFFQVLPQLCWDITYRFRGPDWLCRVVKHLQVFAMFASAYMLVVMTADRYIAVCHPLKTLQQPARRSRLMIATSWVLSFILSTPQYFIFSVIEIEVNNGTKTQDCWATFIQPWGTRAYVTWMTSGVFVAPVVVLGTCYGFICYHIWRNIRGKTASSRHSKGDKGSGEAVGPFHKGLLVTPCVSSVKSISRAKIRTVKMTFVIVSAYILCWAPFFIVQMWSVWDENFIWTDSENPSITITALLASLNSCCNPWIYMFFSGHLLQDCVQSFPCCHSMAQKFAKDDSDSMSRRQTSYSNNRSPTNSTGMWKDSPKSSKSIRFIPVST

Row | SMILES | IC50
1 | COC(=O)[C@H](CCCCNC(=O)OCc1ccccc1)NC(=O)CCCCCOc1ccc(C(=O)N2CCC(N3C(=O)CCc4ccccc43)CC2)cc1 [Example 165, 1-{1-[4-{5-[(5-Benzyloxycarbonylamino)-1-(S)-methoxycarbonyl]pentylaminocarbonylpentyloxy}benzoyl]-4-piperidinyl}-3,4-dihydrocarbostyril] | 540 nM
2 | O=C(c1ccc2ccccc2c1)N1CCC(N2C(=O)CCc3ccccc32)CC1 [Example 116, 1-[1-(2-Naphthylcarbonyl)-4-piperidinyl]-3,4-dihydrocarbostyril] | 760 nM
3 | CCN(CC)CCCCCCOc1ccc(C(=O)N2CCC(N3C(=O)CCc4c(C)cccc43)CC2)cc1 [Example 307, 5-Methyl-1-{1-[4-(6-diethylaminohexyloxy)benzoyl]-4-piperidinyl}-3,4-dihydrocarbostyril] | 23 nM
4 | O=C(c1ccc(CCCCO)cc1)N1CCC(N2C(=O)CCc3ccccc32)CC1 [Example 123, 1-{1-[4-(4-Hydroxybutyl)benzoyl]-4-piperidinyl}-3,4-dihydrocarbostyril] | 350 nM
5 | COc1cc(SC)ccc1C(=O)N1CCC(N2C(=O)CCc3ccccc32)CC1 [Example 53, 1-[1-(2-Methoxy-4-methylthiobenzoyl)-4-piperidinyl]-3,4-dihydrocarbostyril] | 80 nM
6 | O=C(c1ccc(OCCCCCCO)cc1)N1CCC(N2C(=O)CCc3ccccc32)CC1 [Example 128, 1-{1-[4-(6-Hydroxyhexyloxy)benzoyl]-4-piperidinyl}-3,4-dihydrocarbostyril] | 230 nM
7 | CCS(=O)(=O)CCCOc1ccc(C(=O)N2CCC(N3C(=O)CCc4ccccc43)CC2)cc1 [Example 143, 1-{1-[4-(3-Ethylsulfonylpropoxy)benzoyl]-4-piperidinyl}-3,4-dihydrocarbostyril] | 550 nM
8 | O=C(c1ccc(OCCCCCNS(=O)(=O)c2ccc([N+](=O)[O-])cc2)cc1)N1CCC(N2C(=O)CCc3ccccc32)CC1 [Example 263, 1-{1-(4-[5-(4-Nitrophenylsulfonyl)aminopentyloxy]benzoyl)-4-piperidinyl}-3,4-dihydrocarbostyril] | 360 nM
9 | O=C(c1ccc(OCCCN2CCNCC2)cc1)N1CCC(N2C(=O)CCc3ccccc32)CC1 [Example 132, 1-[1-{4-[3-(1-piperazinyl)propoxy]benzoyl}-4-piperidinyl]-3,4-dihyrocarbostyril.dihydrochloride.trihydrate] | 160 nM
10 | O=C(c1ccc(OCCCCC(O)CN2CCCCC2)cc1)N1CCC(N2C(=O)CCc3ccccc32)CC1 (stereo not shown) [Example 303, 1-{1-[4-(5-Hydroxy-6-(1-piperidinyl)hexyloxy)benzoyl]-4-piperidinyl}-3,4-dihydrocarbostyril] | 38 nM
11 | Cc1ccc(S(=O)(=O)NCCCOc2ccc(C(=O)N3CCC(N4C(=O)CCc5ccccc54)CC3)cc2)cc1 [Example 174, 1-{1-[4-(3-p-Toluenesulfonylaminopropoxy)benzoyl]-4-piperidinyl}-3,4-dihydrocarbostyril] | 490 nM
12 | CC(=O)c1ccc(C(=O)N2CCC(N3C(=O)CCc4ccccc43)CC2)cc1 [Example 107, 1-[1-(4-Acetylbenzoyl)-4-piperidinyl]-3,4-dihydrocarbostyril] | 750 nM
13 | NC(=O)CCCOc1ccc(C(=O)N2CCC(N3C(=O)CCc4ccccc43)CC2)cc1 [Example 7, 1-{1-[4-(3-Carbamoylpropoxy)benzoyl]-4-piperidinyl}-3,4-dihydrocarbostyril] | 310 nM
14 | NC(=O)CNC(=O)CCCCCOc1ccc(C(=O)N2CCC(N3C(=O)CCc4ccccc43)CC2)cc1 [Example 14, 1-{1-[4-(5-Carbamoylmethylaminocarbonylpentyloxy)benzoyl]-4-piperidinyl}-3,4-dihydrocarbostyril] | 160 nM
15 | C[Si](C)(C)c1ccc(C(=O)N2CCC(N3C(=O)CCc4ccccc43)CC2)cc1 [Example 110, 1-[1-(4-Trimethylsilylbenzoyl)-4-piperidinyl]-3,4-dihydrocarbostyril] | 1300 nM
16 | CC(=O)NCC(O)CCCCOc1ccc(C(=O)N2CCC(N3C(=O)CCc4ccccc43)CC2)cc1 (stereo not shown) [Example 177, 1-{1-[4-(5-Hydroxy-6-acetylaminohexyloxy)-benzoyl]-4-piperidinyl}-3,4-dihydrocarbostyril] | 130 nM
17 | O=C(c1ccc(OCCCCCN2CCC[C@H]2CO)cc1)N1CCC(N2C(=O)CCc3ccccc32)CC1 [Example 238, 1-(1-(4-[5-(2-(S)-Hydroxymethyl-1-pyrrolidinyl)pentyloxy]benzoyl)-4-piperidinyl}-3,4-dihydrocarbostyril] | 33 nM
18 | O=C(CCl)NCCCCOc1ccc(C(=O)N2CCC(N3C(=O)CCc4ccccc43)CC2)cc1 [Example 228, 1-{1-(4-[4-(2-Chloroacetylamino)butoxy]benzoyl)-4-piperidinyl)-3,4-dihydrocarbostyril] | 200 nM

Row | SMILES | IC50
19 | N=C(N)CCCOc1ccc(C(=O)N2CCC(N3C(=O)CCc4ccccc43)CC2)cc1 [Example 6, 1-{1-[4-(3-Amidinopropoxy)benzoyl]-4-piperidinyl}-3,4-dihydrocarbostyril] | 470 nM
20 | CC(=O)Nc1ccc(C(=O)NCCCOc2ccc(C(=O)N3CCC(N4C(=O)CCc5ccccc54)CC3)cc2)cc1 [Example 196, 1-(1-[4-(3-(4-Acetylaminobenzoyl)aminopropoxy)benzoyl]-4-piperidinyl}-3,4-dihydrocarbostyril] | 170 nM
21 | COC1(CNCCCCCCOc2ccc(C(=O)N3CCC(N4C(=O)CCc5ccccc54)CC3)cc2)OCC(O)C(O)C1O (stereo not shown) [Example 267, 1-{1-(4-[6-(N-(2-Methoxy-3,4,5-trihydroxytetrahydropyran-2-yl)methylamino)hexyloxy]benzoyl)-4-piperidinyl}-3,4-dihydrocarbostyril] | 82 nM
22 | O=C(CN1CCOCC1)NCCCCCOc1ccc(C(=O)N2CCC(N3C(=O)CCc4ccccc43)CC2)cc1 [Example 253, 1-{1-(4-[5-(2-Morpholinoacetylamino)pentyloxy]benzoyl)-4-piperidinyl}-3,4-dihydrocarbostyril] | 180 nM
23 | CCOc1ccc(C(=O)N2CCC(N3C(=O)CCc4ccc(F)cc43)CC2)c(O)c1 [Example 155, 1-[1-(2-Hydroxy-4-ethoxybenzoyl)-4-piperidinyl]-7-fluoro-3,4-dihydrocarbostyril] | 57 nM
24 | CCOc1ccc(C(=O)N2CCC(N3C(=O)CCc4c(C)cccc43)CC2)c(OC)c1 [Example 216, 5-Methyl-1-[1-(2-methoxy-4-ethoxybenzoyl)-4-piperidinyl]-3,4-dihydrocarbostyril] | 41 nM
25 | COC(=O)[C@H](CCCCN)NC(=O)CCCCCOc1ccc(C(=O)N2CCC(N3C(=O)CCc4ccccc43)CC2)cc1 [Example 166, 1-{1-[4-{5-[5-Amino-1-(S)-methoxycarbonyl]pentylaminocarbonylpentyloxy}benzoyl]-4-piperidinyl}-3,4-dihydrocarbostyril] | 44 nM
26 | CC[S+]([O-])CCCOc1ccc(C(=O)N2CCC(N3C(=O)CCc4ccccc43)CC2)cc1 (stereo not shown) [Example 127, 1-{1-[4-(Ethylsulfinylpropoxy)benzoyl]-4-piperidinyl}-3,4-dihydrocarbostyril] | 610 nM
27 | CN1CCN(C(=O)CCCCCOc2ccc(C(=O)N3CCC(N4C(=O)CCc5ccccc54)CC3)cc2)CC1 [Example 272, 1-{1-(4-[5-(4-Methyl-1-piperazinylcarbonyl)pentyloxy]benzoyl)-4-piperidinyl}-3,4-dihydrocarbostyril] | 38 nM
28 | O=C(OCCCCOc1ccc(C(=O)N2CCC(N3C(=O)CCc4ccccc43)CC2)cc1)N1CCNCC1 [Example 163, 1-{1-[4-[4-(1-Piperazinyl)carbonyloxybutoxy]benzoyl]-4-piperidinyl}-3,4-dihydrocarbostyril] | 75 nM
29 | COc1ccc(C(=O)N2CCC(N3C(=O)CCc4ccccc43)CC2)c(OCCCO)c1 [Example 63, 1-{1-[2-(3-Hydroxypropoxy)-4-methoxybenzoyl]-piperidinyl}-3,4-dihydrocarbostyril] | 270 nM
30 | O=C(c1ccc(OCCCCn2cccc2)cc1)N1CCC(N2C(=O)CCc3ccccc32)CC1 [Example 125, 1-[1-{4-[4-(1-pyrrolyl)butoxy]benzoyl}-4-piperidinyl]-3,4-dihydrocarbostyril] | 590 nM
31 | O=C(c1ccc(OCCCCCCN2CCC(N3CCCCC3)CC2)cc1)N1CCC(N2C(=O)CCc3ccccc32)CC1 [Example 265, 1-(1-(4-[6-(4-(1-Piperidinyl)-1-piperidinyl)hexyloxy]benzoyl)-4-piperidinyl}-3,4-dihydrocarbostyril.dioxalate] | 19 nM
32 | CCOc1ccc(C(=O)N2CCC(N3C(=O)C(C(=O)O)Cc4ccccc43)CC2)c(OC)c1 (stereo not shown) [Example 152, 1-[1-(2-Methoxy-4-ethoxybenzoyl)-4-piperidinyl]-3-carboxy-3,4-dihydrocarbostyril] | 1600 nM
33 | COc1ccc(N2CCN(CCCOc3ccc(C(=O)N4CCC(N5C(=O)CCc6ccccc65)CC4)cc3)CC2)cc1 [Example 86, 1-{1-[4-(3-[4-(4-Methoxyphenyl)-1-piperazinyl]propoxy)benzoyl]-4-piperidinyl)-3,4-dihydrocarbostyril] | 570 nM
34 | CC(C)CCNCCCOc1ccc(C(=O)N2CCC(N3C(=O)CCc4ccccc43)CC2)cc1 [Example 167, 1-{1-[4-(3-Isopentylaminopropoxy)benzoyl]-4-piperidinyl}-3,4-dihydrocarbostyril] | 280 nM
35 | O=C(CNCc1ccccc1)NCCCCCOc1ccc(C(=O)N2CCC(N3C(=O)CCc4ccccc43)CC2)cc1 [Example 256, 1-{1-(4-[5-(2-Benzylaminoacetylamino)pentyloxy]benzoyl)-4-piperidinyl}-3,4-dihydrocarbostyril] | 190 nM

same assay, conditions: [H]3-Arg-vasopressin 2×10^-10 M, rat liver plasma membrane, 37° C., 10 minutes, pH 8.0

Row | SMILES | IC50
36 | O=C(c1ccc(OCCCCCn2ccnc2)cc1)N1CCC(N2C(=O)CCc3ccccc32)CC1 [Example 236] | 260 nM
37 | CN(CC(O)CCCCOc1ccc(C(=O)N2CCC(N3C(=O)CCc4ccccc43)CC2)cc1)CC(O)c1ccccc1 (stereo not shown) [Example 219, 1-{1-[4-(5-Hydroxy-6-[N-methyl-N-(2-hydroxy-4-phenylethyl)amino]hexyloxy)benzoyl]-4-piperidinyl}-3,4-dihydrocarbostyril] | 60 nM
